Earlier results as cited in patent publication US20180256556A1, “METHODS FOR TREATING AN IMPAIRMENT IN GAIT AND/OR BALANCE IN PATIENTS WITH MULTIPLE SCLEROSIS USING AN AMINOPYRIDINE” (Acorda Therapeutics, Inc., priority 2012, published 2018).

What was measured:
potassium channels = conditions: high concentration (millimolar)
[1] = test system: patients with multiple sclerosis; conditions: p<0.05

For `Nc1ccncc1` [4-AP, 4-aminopyridine], the “Potassium channel blocking activity” value (potassium channels) is given as “broad-spectrum blocker of potassium channels” and the “Leg strength (LEMMT) relative to placebo” value [1] is given as “statistically significantly improved”.
